Laboratory results as given in patent US20060205637A1, “Fluoro-alkyl-cyclopeptide derivatives having anti-integrin activity” (Sigma-Tau Industrie Farmaceutiche Riunite S.p.A., priority 2002, published 2006).
Where two headings read alike, the source gives them in different places.

Experiments:
[1] = test system: bovine microvascular endothelial cells (BMEC)
Protocol: Microvascular endothelial cells from bovine adrenal glands (bovine microvascular endothelial cells—BMEC) were isolated from animals that had just been sacrificed and were stored in ice up to their arrival in the laboratory. In sterile conditions, the glands were washed in a solution of betadine for 5 minutes and then in 2 liters of sterile PBS. The glands were then cut with a disposable sterile lancet into fragments of approximately 2 mm and transferred to polystyrene Falcon tubes containing PBS (30 ml per gland). After centrifuging at 600 rpm in a centrifuge cooled to +4° C., the supernatant was decanted. The pellet was resuspended 1:2 with a 0.12% solution of collagenase A (Boehringer Mannheim) and incubated at 37° C. for 2 hours under stirring. After subsequent filtration on filters (Sigma), first of 200, and then 100 mesh, the supernatant was added to a solution of DMEM containing 15% FBS to inhibit the action of the collagenase A. The solution was centrifuged at 1000 rpm at room temperature and the precipitate resuspended in DMEM medium containing 20% FBS, 50 μg/ml of bovine brain extract (BBE), 50 μg/ml of heparin (Sigma), 0.5% v/v gentamicin (Sigma), and 1% v/v L-glutamine. The cells were seeded on Petri dishes gelatinised with 1% gelatin (Sigma porcine gelatin). At confluence, the cells were characterised with endothelial markers as Factor VIII.

[2] = test system: Human melanoma MeWo cells; experiment: Cell adhesion assay on vitronectin, MeWo; assay type: cell-based; conditions: inhibition of cell adhesion to human vitronectin, 0.1 to 100 μM; read-out: MeWo IC50 ± SD
Protocol: Human melanoma MeWo cells from the American Type Culture Collection (ATCC) were kept in culture in complete Eagle Minimal Essential Medium (EMEM) containing 10% FCS, 2 mM L-glutamine and 50 μg/ml gentamicin.
(§1) 96-well plates were pretreated with 5 μg/ml of human vitronectin (Cal-biochem) for 12 hours at +4° C. BMEC or MeWo cells were detached with trypsin-EDTA, counted and plated on vitronectin substrate. The molecules were assayed at scalar concentrations ranging from 0.1 to 100 μM and co-incubated with the cells left to adhere. […] The adhereing cells were fixed with a 4% paraformaldehyde solution for 10 minutes at room temperature. The cells were then stained with a 1% toluidine blue solution for 10 minutes at room temperature. After staining, the cells were washed in double-distilled water, dried and solubilised with a 1% SDS solution. The cells were then quantified by means of absorbance reading on a Victor multilabel plate counter (Wal-lac) at 600 nm.
(§2) The evaluation parameter for the activity of the molecules was the value IC50±SD (μM).

[3] = target: T1, integrin αvβ5 (Homo sapiens, UniProt P06756+P18084); experiment: Binding to integrin αvβ5 receptors ((125I) Echistatin displacement); conditions: for IC50: 0.05 nM (125I) Echistatin, plate coated with 1 μg/ml integrin, read-out: αvβ5 IC50 ± SD
T1 construct: purchased Chemicon CC1022
T1 sequence (P06756 31-889 limits assumed): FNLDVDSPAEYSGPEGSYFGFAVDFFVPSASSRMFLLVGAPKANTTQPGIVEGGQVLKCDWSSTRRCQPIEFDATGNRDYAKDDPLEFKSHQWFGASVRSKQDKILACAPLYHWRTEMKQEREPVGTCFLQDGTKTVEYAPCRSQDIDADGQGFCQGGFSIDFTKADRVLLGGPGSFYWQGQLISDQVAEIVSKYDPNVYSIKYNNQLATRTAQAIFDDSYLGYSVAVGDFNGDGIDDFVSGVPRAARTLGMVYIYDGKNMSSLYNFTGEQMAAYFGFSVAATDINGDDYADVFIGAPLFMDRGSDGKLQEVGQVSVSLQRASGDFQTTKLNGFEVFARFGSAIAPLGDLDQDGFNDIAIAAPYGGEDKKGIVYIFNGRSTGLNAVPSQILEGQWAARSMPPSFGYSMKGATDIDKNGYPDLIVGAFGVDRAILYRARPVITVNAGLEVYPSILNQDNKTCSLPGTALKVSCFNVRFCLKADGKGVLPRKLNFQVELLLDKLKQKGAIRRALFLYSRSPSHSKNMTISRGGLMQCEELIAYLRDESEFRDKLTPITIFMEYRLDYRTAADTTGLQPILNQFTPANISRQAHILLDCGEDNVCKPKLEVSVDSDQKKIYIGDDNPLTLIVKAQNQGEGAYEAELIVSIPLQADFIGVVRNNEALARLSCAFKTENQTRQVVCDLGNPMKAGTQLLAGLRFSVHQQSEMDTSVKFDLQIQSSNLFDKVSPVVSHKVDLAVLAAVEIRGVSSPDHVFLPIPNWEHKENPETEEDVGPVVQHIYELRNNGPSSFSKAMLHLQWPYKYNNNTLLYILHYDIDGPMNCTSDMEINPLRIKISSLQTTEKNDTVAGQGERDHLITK
T1 sequence (P06756 891-1048 partner limits assumed): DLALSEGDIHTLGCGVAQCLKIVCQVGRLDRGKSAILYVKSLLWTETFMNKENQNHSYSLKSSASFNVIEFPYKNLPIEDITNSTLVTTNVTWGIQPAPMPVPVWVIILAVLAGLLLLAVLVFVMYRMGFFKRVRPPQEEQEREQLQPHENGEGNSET
T1 sequence (P18084 24-799): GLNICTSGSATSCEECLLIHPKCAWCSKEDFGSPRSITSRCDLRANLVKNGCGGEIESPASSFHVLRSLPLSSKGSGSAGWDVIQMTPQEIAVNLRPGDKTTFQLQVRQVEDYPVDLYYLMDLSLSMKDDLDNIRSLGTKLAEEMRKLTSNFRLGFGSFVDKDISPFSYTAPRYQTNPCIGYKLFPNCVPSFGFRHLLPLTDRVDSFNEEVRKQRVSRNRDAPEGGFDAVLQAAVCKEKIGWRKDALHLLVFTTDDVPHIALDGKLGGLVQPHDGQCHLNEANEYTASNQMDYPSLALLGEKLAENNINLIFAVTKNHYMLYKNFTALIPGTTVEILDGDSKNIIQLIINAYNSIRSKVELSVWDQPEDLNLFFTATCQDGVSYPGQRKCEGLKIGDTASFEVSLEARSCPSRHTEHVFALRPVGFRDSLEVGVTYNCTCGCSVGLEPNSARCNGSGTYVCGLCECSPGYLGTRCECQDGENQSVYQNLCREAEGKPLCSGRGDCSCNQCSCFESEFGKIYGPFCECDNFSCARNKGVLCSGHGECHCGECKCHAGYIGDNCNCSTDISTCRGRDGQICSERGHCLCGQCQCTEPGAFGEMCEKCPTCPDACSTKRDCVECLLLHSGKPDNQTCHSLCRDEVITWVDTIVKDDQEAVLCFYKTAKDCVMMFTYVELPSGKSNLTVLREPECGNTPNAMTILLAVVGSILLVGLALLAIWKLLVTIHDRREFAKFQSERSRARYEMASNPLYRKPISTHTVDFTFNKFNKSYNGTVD
Protocol: On the next day, the wells were washed and incubation was performed with 0.05 nM of(^125I) Echistatin (Amersham, cat. IM304) in the absence or presence of compounds according to the invention. The process then proceeded as described in the previous case.
(§3) The affinity of the compounds according to the present invention for vitronectin receptors was expressed as the IC50±SD value (nM) which is a parameter elaborated using “ALLFIT” software.

[4] = target: T2, integrin αvβ3 (Homo sapiens, UniProt P05106+P06756); experiment: Binding to integrin αvβ3 receptors ((125I) Echistatin displacement); conditions: for IC50: 0.05 nM (125I) Echistatin, 3-hour incubation, plate coated with 0.5 μg/ml integrin, read-out: αvβ3 IC50 ± SD
T2 construct: purchased Chemicon CC1020
T2 sequence (P06756 31-889 limits assumed): as the sequence (P06756 31-889 limits assumed) above
T2 sequence (P06756 891-1048 partner limits assumed): as the sequence (P06756 891-1048 partner limits assumed) above
T2 sequence (P05106 27-788): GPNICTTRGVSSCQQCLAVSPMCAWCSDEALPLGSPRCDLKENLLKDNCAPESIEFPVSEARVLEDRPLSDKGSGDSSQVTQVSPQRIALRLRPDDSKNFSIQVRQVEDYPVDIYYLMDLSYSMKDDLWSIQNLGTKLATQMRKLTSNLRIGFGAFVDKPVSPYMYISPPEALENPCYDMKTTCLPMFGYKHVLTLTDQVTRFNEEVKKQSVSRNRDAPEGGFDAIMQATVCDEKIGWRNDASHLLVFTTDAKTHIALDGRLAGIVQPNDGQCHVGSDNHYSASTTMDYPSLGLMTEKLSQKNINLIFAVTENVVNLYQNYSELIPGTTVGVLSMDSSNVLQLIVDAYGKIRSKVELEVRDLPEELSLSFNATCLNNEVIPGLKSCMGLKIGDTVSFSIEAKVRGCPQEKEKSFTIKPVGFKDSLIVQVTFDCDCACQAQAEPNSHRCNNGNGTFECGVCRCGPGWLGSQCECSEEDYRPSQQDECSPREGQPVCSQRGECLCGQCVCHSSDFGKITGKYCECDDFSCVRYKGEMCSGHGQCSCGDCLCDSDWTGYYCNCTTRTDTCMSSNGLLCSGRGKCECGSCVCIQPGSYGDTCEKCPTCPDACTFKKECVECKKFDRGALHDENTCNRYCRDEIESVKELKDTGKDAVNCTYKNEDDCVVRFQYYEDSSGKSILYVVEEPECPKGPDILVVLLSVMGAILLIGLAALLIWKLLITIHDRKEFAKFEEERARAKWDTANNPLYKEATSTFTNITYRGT
Protocol: 96-well plates were subjected overnight to coating with 0.5 μg/ml of integrin αvβ3 (Chemicon, cat. CC1020). On the next day, the wells were washed and incubation was performed with 0.05 nM of (^125I) Echistatin (Amersham, cat. IM304) in the absence or presence of compounds according to the invention. After a 3-hour incubation and a series of washings, the integrin from each well bound to the radioactive substance was solubilised with NaOH 2N, and the radioactivity was then measured using a gamma counter. Non-specific binding, to be subtracted from all samples, was determined in the presence of Echistatin 1 μM.
as §3

[5] = test system: SK-LMS-1 human leiomyosarcoma cells; experiment: Cell adhesion assay on vitronectin, SK-LMS-1; assay type: cell-based; conditions: inhibition of cell adhesion to human vitronectin, 0.1 to 100 μM; read-out: SK-LMS1 IC50 ± SD
Protocol: SK-LMS-1 human leiomyosarcoma cells (ATCC) were grown in EMEM supplemented with 10% FCS, 2 mM L-glutamine and 50 μg/ml gentamicin.
as §1, §2

Row | IC50 [3] [µM] | IC50 [4] [µM] | Compound | IC50 [1] [µM] | IC50 [2] [µM] | also measured
1 |  |  | N=C(N)NCCC[C@@H]1NC(=O)C(Cc2ccccc2)(C(F)(F)F)NC(=O)[C@@H](Cc2ccccc2)NC(=O)[C@H](CC(=O)O)NC(=O)CNC1=O (single isomer, unassigned) [ST1930, C(Arg-Gly-Asp-D-Phe-(R or S)-Tfm-Phe)] | 8.9 ± 0.4 | 6.9 ± 1.3 | 
2 | > 10 | > 10 | CC(C)[C@@H]1NC(=O)[C@@H](Cc2ccccc2)NC(=O)C(CC(=O)O)(C(F)(F)F)NC(=O)CNC(=O)[C@H](CCCNC(=N)N)NC1=O (single isomer, unassigned) [ST2189, c(Arg-Gly-(R or S)-Tfm-Asp-D-Phe-Val)] |  |  | 
3 | > 10 | > 10 | CC(C)[C@@H]1NC(=O)[C@@H](Cc2ccccc2)NC(=O)C(CC(=O)O)(C(F)(F)F)NC(=O)CNC(=O)[C@H](CCCNC(=N)N)NC1=O (single isomer, unassigned) [ST2190, c(Arg-Gly-(R or S)-Tfm-Asp-D-Phe-Val)] |  |  | 
4 |  |  | CC(C)C1(C(F)(F)F)NC(=O)[C@@H](Cc2ccccc2)NC(=O)[C@H](CC(=O)O)NC(=O)CNC(=O)[C@H](CCCNC(=N)N)NC1=O (single isomer, unassigned) [ST2409, c(Arg-Gly-Asp-D-Phe-(R or S)-Tfm-Val)] | 12.5 ± 1.5 |  | IC50 [5]: 15.9 ± 1.6 µM
5 |  |  | CC(C)C1(C(F)(F)F)NC(=O)[C@@H](Cc2ccccc2)NC(=O)[C@H](CC(=O)O)NC(=O)CNC(=O)[C@H](CCCNC(=N)N)NC1=O (single isomer, unassigned) [ST2410, c(Arg-Gly-Asp-D-Phe-(R or S)-Tfm-Val)] | 77.6 ± 7.2 |  | IC50 [5]: > 100 µM
6 |  |  | CN1C(=O)[C@@H](Cc2ccccc2)NC(=O)[C@H](CC(=O)O)NC(=O)CNC(=O)[C@H](CCCNC(=N)N)NC(=O)C1(Cc1ccccc1)C(F)(F)F (single isomer, unassigned) [ST2552, c(Arg-Gly-Asp-D-Phe-(R or S)—N-Me-Tfm-Phe)] | > 100 | 0.33 ± 0.05 | binding affinity for vitronectine receptor αvβ5 (in words) [3]: high binding affinity; binding affinity for vitronectine receptor αvβ3 (in words) [4]: high binding affinity
7 | 0.0055 ± 0.0008 | 0.332 ± 0.101 | c(Arg-Gly-Asp-D-Phe-(R,S)-Dfm-Phe) [ST1932] |  | 13.9 ± 4.3 | IC50 ([1]; read-out: BMEC IC50 ± SD, inhibition of cell adhesion to human vitronectin, 0.1 to 100 μM): 14.2 ± 1 µM

Row | Compound | IC50 [3] [µM] | IC50 [4] [µM] | IC50 [1] [µM] | IC50 [2] [µM] | also measured
8 | CC(C)[C@@H]1NC(=O)C(Cc2ccccc2)(C(F)(F)F)NC(=O)[C@H](CC(=O)O)NC(=O)CNC(=O)[C@H](CCCNC(=N)N)NC1=O (single isomer, unassigned) [ST2191, c(Arg-Gly-Asp-(R o S)-Tfm-Phe-Val)] | 0.01 ± 0.0019 | 0.237 ± 0.064 | 18.8 ± 4.4 | 21.9 ± 2.5 | 
9 | CC(C)[C@@H]1NC(=O)C(Cc2ccccc2)(C(F)(F)F)NC(=O)[C@H](CC(=O)O)NC(=O)CNC(=O)[C@H](CCCNC(=N)N)NC1=O (single isomer, unassigned) [ST2192, c(Arg-Gly-Asp-(R o S)-Tfm-Phe-Val)] | 0.0727 ± 0.0038 | 1.02 ± 0.348 | > 100 |  | 
